Assays:
[1] = system: MC38 mouse colon cancer cells; assay: Antitumor effect in MC38 colon cancer cell-transplanted mouse models (tumor volume); assay type: in vivo; conditions: for T/C (%): Day 15; for TV on Day 15 (mm^3, mean ± SE): MC38 s.c. in C57BL/6NCrl mice, n=10
Experimental: The mouse colon cancer cell strain MC38 was obtained from Dr. Yoshihiro Hayakawa (University of Toyama, Toyama, Japan). The MC38 cell strain was subjected to culture in an RPMI 1640 medium containing 10% fetal bovine serum and then to subculture in an incubator at 37° C. in the presence of 5% CO2 at a frequency of once or twice a week.
The MC38 cell suspension was transplanted subcutaneously at 1×10^6 cells/0.1 ml to the right chest of 6-week-old C57BL/6NCrl mice (Charles River Laboratories Japan, Inc.).
After transplantation, tumors were allowed to grow to reach the tumor volume (TV) of 50 to 300 mm^3. The longer diameter and the shorter diameter of the tumor were measured using a Digimatic caliper and the tumor volume (TV) was calculated in accordance with the following formula.
The animals were divided into groups each consisting of 10 individuals by stratified random allocation using TV as the indicator. The day on which grouping (n=10) was performed was designated as Day 0.
Tumor volume changes (T/C) were calculated based on TV on the final day of evaluation (Day 15).
(§1) An aqueous solution of 0.5% Hypromellose was prepared by adding an adequate amount of an injection solvent (Japanese Pharmacopoeia) to and dissolving Hypromellose at a concentration of 0.5 w/v %. Compound 1, synthesized in accordance with the method disclosed in WO 2017/209155, was grounded in an agate mortar, suspended at a given concentration in the aqueous solution of 0.5% Hypromellose, and then ultrasonically treated to obtain a homogeneous suspension. The resulting suspension was orally administered as Compound 1 once a day for continuous 14 days at 25 mg/kg/day or 50 mg/kg/day. To the control group, the aqueous solution of 0.5% Hypromellose was orally administered once a day for continuous 14 days.
(§2) As an anti-mouse PD-1 antibody (anti-mPD-1 Ab), CD279 (PD-1) Monoclonal Antibody (RMP1-14), eBioscience (Thermo Fisher Scientific) was diluted to a given concentration with PBS immediately before administration. On the first day of administration (Day 1), the anti-mouse PD-1 antibody was administered intraperitoneally at 0.05 mg/body.

[2] = Body weight changes in MC38 colon cancer cell-transplanted mouse models; assay type: in vivo
Experimental: Body weights were measured using an electronic balance for animals. Body weight changes (BWCn) on the n^th day were determined based on the body weight measured on the n^th day (BWn) in accordance with the following formula.
as §1, §2

[3] = Non-Patent Literature 10; cited from earlier work
[4] = molecular target: T1, RNR (Homo sapiens, UniProt P31350); conditions: Non-Patent Literature 7; cited from earlier work
T1 sequence (P31350 1-389): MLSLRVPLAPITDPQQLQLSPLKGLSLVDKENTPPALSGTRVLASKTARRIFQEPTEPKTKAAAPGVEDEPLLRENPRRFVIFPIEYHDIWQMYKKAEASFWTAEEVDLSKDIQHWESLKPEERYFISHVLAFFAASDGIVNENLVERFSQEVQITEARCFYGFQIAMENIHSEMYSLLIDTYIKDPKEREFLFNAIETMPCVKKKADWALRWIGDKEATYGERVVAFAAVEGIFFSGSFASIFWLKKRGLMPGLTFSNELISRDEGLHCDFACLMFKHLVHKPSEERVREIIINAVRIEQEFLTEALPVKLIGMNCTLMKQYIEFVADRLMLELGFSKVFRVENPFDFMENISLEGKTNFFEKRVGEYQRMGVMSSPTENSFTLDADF

[5] = Compound 1 25 mg/kg/day p.o. days 1-14
[6] = Compound 1 50 mg/kg/day p.o. days 1-14

Cc1ccc(F)c([C@@H](C)[C@H](NS(=O)(=O)c2ccc(Cl)cc2C(N)=O)c2n[nH]c(=O)o2)c1C [Compound 1, 5-Chloro-2-(N-((1S,2R)-2-(6-fluoro-2,3-dimethylphenyl)-1-(5-oxo-4,5-dihydro-1,3,4-oxadiazol-2-yl)propyl)sulfamoyl)benzamide]
T/C (%) [1, 5]: 91.9% | TV on Day 15 (mm^3, mean ± SE) [1, 5]: 868 ± 182 mm^3 | T/C (%) [1, 6]: 29.7% | TV on Day 15 (mm^3, mean ± SE) [1, 6]: 306 ± 79 mm^3 | TV on Day 15 compared with the control group (Dunnett's test) ([1]; Compound 1 at 50 mg/kg/day alone): significantly lower | BWC on Day 15 (%, mean ± SE) [2, 5]: 4.0 ± 0.7% | BWC on Day 15 (%, mean ± SE) [2, 6]: 4.9 ± 1.0%

NC(=S)NN=Cc1ncccc1N [Compound 3-AP, 3-aminopyridine-2-carboxaldehyde thiosemicarbazone]
Side effects caused in clinical cases [3]: hypoxia, dyspnea, methemoglobinemia

NC(=O)NO [HU, hydroxyurea]
RNR inhibitory activity [4]: very weak
